Measurements published in publication PMC6321321 (Pharmaceutics, 2018).

What was measured:
Caco-2 cell monolayers [1] = assay: TEER measurement of Caco-2 monolayer; assay type: cell-based, human; settings: 37 °C, N=3
Method: In preparation for the assays, the cell membranes were allowed to equilibrate for 30 min in transport buffer; HBSS (pH 7.4) with 0.001% MC was added to the apical (0.5 mL) and basal (1.5 mL) chambers of the transwell.
The TEER of the Caco-2 monolayer was measured to confirm cell growth and differentiation on the insert filter of the transwell using a Millicell ERS-2 (Millipore Corp., Bedford, MA, USA). Before seeding the Caco-2 cells, the electrical resistance of the insert filter in the medium was measured and subtracted from the total electrical resistance determined for the monolayer to calculate the intrinsic TEER of the monolayer. The TEER of the monolayer was measured at the end of the 2 h incubation to detect any negative effects of the applied L-tryptophan on the intercellular tight junctions. The TEER is expressed as a percentage calculated by dividing the TEER value (Ω cm^2) at 2 h by the initial value.

rat ileal segments = assay: In situ LDH leakage from rat ileal segments; assay type: in vivo; settings: rat ileal loop; insulin 50 IU/kg with L-tryptophan 16 and 32 mM; fluid collected 60 min after administration; N=3; positive control 5% sodium taurodeoxycholate
Method: (§2) To assess the cytotoxic effects of L-tryptophan, the integrity of the cell membrane after treatment with the CPPs was examined by measuring the lactate dehydrogenase (LDH) released from the cytoplasm under both in vitro and in situ conditions.
For the trial with the highest concentration of L-tryptophan (50 mM), L-arginine (40 mM) was added as a solubilizing agent. For this test, 5% sodium taurodeoxycholate was used as a positive control. At 60 min after administration, the ileal loop was washed with 5.0 mL of PBS and then intestinal fluid was collected. After adjusting the collected intestinal fluid to a total volume of 6.0 mL with PBS, the activity of LDH (Unit) leaked into the intestinal fluid was determined using an LDH kit (Promega Corp.).

Caco-2 cells [2] = assay: In vitro LDH leakage; assay type: cell-based, human; settings: HBSS pH 7.4 with 0.001% MC, 300–2400 μM, 120 min, 37 °C, relative to 0.8% Triton X-100, N=3
Method: as §2
In the in vitro assay, the Caco-2 cells were grown in 24-well plates with a 1.88 cm^2 culture area (Nippon Becton Dickinson) at the density of 1.0 × 10^5 cells/cm^2 and then grown in completed DMEM for 3 or 4 days. Before the addition of L-tryptophan, cell membranes were allowed to equilibrate in 0.5 mL of assay buffer for 30 min. HBSS containing 0.001% MC (pH 7.4) was added to the wells as the transport buffer. After a 30 min pre-incubation with transport buffer, the assay was initiated by replacing 50 μL of transport buffer with 50 μL of L-tryptophan stock solution (ten times concentration) or transport buffer. […] The incubation buffer was collected and LDH released from the cytoplasm into the incubation buffer was determined using a CytoTox 96 Non-Radioactive Cytotoxicity Assay kit (Promega Corp., Madison, WI, USA). Cytotoxicity was expressed as the percentage calculated by dividing the absorbance of the vehicle (HBSS) or the L-tryptophan-treated sample by that of a sample treated with 0.8% Triton X-100, according to the instructions of assay kit.

Caco-2 cells [3] = assay: Cell viability assay (WST-8, CCK-8); assay type: cell-based, human; settings: completed DMEM, 600–2400 μM, 2 h then 3 h with CCK-8, N=6-11
Method: To examine the cellular viability of Caco-2 cells exposed to L-tryptophan, a WST-8 assay was performed with Cell Counting Kit-8 (CCK-8, Dojindo Laboratories, Kumamoto, Japan). The Caco-2 cells were grown in 96-well plates with a 0.33 cm^2 culture area (Nippon Becton Dickinson) to a density of 3.0 × 10^4 cells/cm^2 and then grown in 100 μL of completed DMEM for 3 or 4 days. In this assay, the completed DMEM was used in place of the incubation buffer to prevent the possible loss of cell viability during total 5 h incubation in HBSS. First, 10 μL of L-tryptophan stock solution (eleven times concentration) or transport buffer was added to 100 μL of completed DMEM and the cells were incubated with various concentrations of L-tryptophan (600–2400 μM) for 2 h. Then, 10 μL of CCK-8 reagent was added to the wells and the cells were incubated for an additional 3 h to allow for the reductive reaction of WST-8. The resulting absorbances of the incubated solution in the wells were read with a microplate reader (Synergy HT, BioTek Instruments Inc.) at a wavelength of 450 nm. In this assay, 0.8% of Triton X-100 was used as a positive control, same as the LDH assay.

insulin = target: T1, insulin (Homo sapiens, UniProt P01308); assay: SPR-based binding assay on immobilized insulin
T1 construct: purchased Wako Pure Chemical Industries, Ltd. (Osaka, Japan)
T1 sequence (P01308 25-54 limits assumed): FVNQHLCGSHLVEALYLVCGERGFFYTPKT
T1 sequence (P01308 90-110 limits assumed): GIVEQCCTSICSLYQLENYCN
Method: Reference surfaces were prepared by amine coupling activation followed by immediate deactivation. […] At the end of each cycle, the surface was regenerated by a 30 s injection of 1 M NaCl. […] Each sensorgram was determined by subtracting nonspecific binding on the surface of the reference flow cell from total binding on the immobilized-insulin surface.

[4] = In vivo oral administration study, blood glucose levels; settings: mice fasted 24 h; oral gavage insulin 50 IU/kg with L-tryptophan 32 mM (100 μL); blood glucose 0-360 min; N=6-8
Method: Blood glucose levels were measured (One Touch Ultra View, Johnson & Johnson K.K., Tokyo, Japan) by collection of blood (one drop) from a small cut in the tail vein at t = 0 (prior to dosing), 15, 30, 60, 120, 180, 240, 300 and 360 min after administration. Blood glucose levels are depicted as percentage of the initial value in same mouse. Mice were trained with oral dosing and tail cutting at 24 h and 60 min prior to actual drug administration to avoid the unexpected elevation of blood glucose levels during experiments.

[5] = In situ closed ileum loop absorption of dextrans and peptide drugs with or without L-tryptophan
Method: Additional i.p. injections of sodium pentobarbital (12.5 mg/kg) were administered every 1 h to maintain anesthesia. The ileum was exposed following a small midline incision made carefully in the abdomen. Its proximal to ileocecal junction segments (length = 10 cm) were cannulated at both ends using polypropylene tubing and ligated securely to prevent fluid loss. To wash out the intestinal contents, PBS warmed to 37 °C was circulated through the cannula at 5.0 mL/min for 4 min using an infusion pump. The cannulation tubing was removed, the segments were closed tightly and returned carefully to their original location inside the peritoneal cavity. Rats were kept on the board at 37 °C for an additional 30 min to calm biological reactions such as elevated blood glucose levels resulting from the stress imposed by surgery. […] To examine dose dependency, the final concentrations of tryptophan were adjusted to 4, 8, 16 and 32 mM. […]
(§1) During the experiment, 0.25 mL blood aliquots were taken from the jugular vein at 0, 5, 10, 15, 30, 60, 120 and 180 min after dosing. […] The plasma concentrations of FDs were measured with a microplate fluorimeter (Synergy HT, BioTek Instruments Inc., Winooski, VT, USA) at excitation and emission wavelengths of 485 and 528 nm, respectively.

[6] = insulin co-administered with additive at 40 mM; cited from earlier work
Caco-2 cell monolayers [7] = settings: 9.6 mM (equivalent to 4.2 mg/kg in the animal study) added to transwell; cited from earlier work
[8] = In situ closed ileum loop administration study: insulin co-administered with additives; settings: in situ rat ileal loop; for Effect on the intestinal absorption of insulin (in words): insulin 50 IU/kg co-administered with additive at 32 mM, N=3-8
Method: Additional i.p. injections of sodium pentobarbital (12.5 mg/kg) were administered every 1 h to maintain anesthesia. The ileum was exposed following a small midline incision made carefully in the abdomen. Its proximal to ileocecal junction segments (length = 10 cm) were cannulated at both ends using polypropylene tubing and ligated securely to prevent fluid loss. To wash out the intestinal contents, PBS warmed to 37 °C was circulated through the cannula at 5.0 mL/min for 4 min using an infusion pump. The cannulation tubing was removed, the segments were closed tightly and returned carefully to their original location inside the peritoneal cavity. Rats were kept on the board at 37 °C for an additional 30 min to calm biological reactions such as elevated blood glucose levels resulting from the stress imposed by surgery. […] To examine dose dependency, the final concentrations of tryptophan were adjusted to 4, 8, 16 and 32 mM. In the comparison study with three hydrophobic amino acids or metabolite of L-tryptophan, the final concentrations of L-isoleucine, L-proline, L-phenylalanine and serotonin were 32 mM. In the study examining the synergistic effect of L-arginine and L-tryptophan, the final concentration of L-arginine was fixed at 40 mM.
as §1, with “dosing. The tuberculin syringes (1 mL, Terumo Corp., Tokyo, Japan) were heparinized by the standard procedure of coating the syringe wall with aspirated heparin and then expelling all the heparin.” for “dosing.”

Caco-2 cell monolayers [9] = assay: Transcellular transport assay: insulin permeation through Caco-2 monolayer; settings: Caco-2 transwell, apical to basal, insulin 15 μM co-incubated with additive 2.4 or 16 mM, HBSS pH 7.4, 2 h, 37 °C; N=3
Method: For TEER measurement, Caco-2 cells were grown in 12-well transwell plates with a 1.13 cm^2 culture area (collagen-coated polytetrafluoroethylene (PTFE) membrane with 0.4 μm pore size, Corning Inc., Corning, NY, USA). The cells were cultured to a density of 1.0 × 10^5 cells/cm^2. […] The culture medium was changed every second day and the electrical resistance was monitored by the method described below. Each well consisted of apical (top) and basal (bottom) chambers, which were separated by a collagen-coated polytetrafluoroethylene membrane with a pore size of 0.4 μm and a filter area of 1.12 cm^2.
In preparation for the assays, the cell membranes were allowed to equilibrate for 30 min in transport buffer; HBSS (pH 7.4) with 0.001% MC was added to the apical (0.5 mL) and basal (1.5 mL) chambers of the transwell. […] During the incubation, the Caco-2 monolayer was kept at physiological temperature (37 °C).

With `CCCCCCCCCC(=O)[O-].[Na+]` [C10, sodium caprate] the “Change in TEER of Caco-2 cell monolayers” value (Caco-2 cell monolayers [1]; typical enhancer as positive control, concentration not given, 2 h) was “significant reduction in TEER”.

For `N[C@@H](Cc1c[nH]c2ccccc12)C(=O)O` [L-Tryptophan, L-tryptophan], the “Leakage of LDH into intestinal fluid (in situ)” value (rat ileal segments) was “negligible”, the “Release of LDH into the media (in vitro)” value (Caco-2 cells [2]) was “no release of LDH” and the “Cell viability (WST-8)” value (Caco-2 cells [3]) was “no decrease in cell viability”. The “Change in TEER of Caco-2 cell monolayers” value (Caco-2 cell monolayers [1]; apical, insulin 15 μM with additive 600–16,000 μM, HBSS pH 7.4, 2 h, TEER at 120 min vs initial) was “No change in the TEER values”, the “Binding to immobilized insulin (SPR sensorgram)” value (insulin; CM5 chip, analyte 2–200 μM, HBSS pH 7.4 with 0.001% MC, 25 °C, 90 s injection) was “do not show an increase” and the “Hypoglycemic reaction / oral absorption of insulin (blood glucose levels)” value [4] was “could enhance the oral absorption of insulin”.

For `N=C(N)NCCC[C@H](N)C(=O)O` [L-arginine], the “Effect on the intestinal absorption of peptide drugs (GLP-1, Exendin-4)” value ([5]; data not shown) is listed as “had no effect on the intestinal absorption of such peptide drugs”, the Binding with insulin (insulin; data not shown) is listed as “showed no binding with insulin” and the “Tmax of insulin absorption after co-administration” value [6] is listed as 12.8 ± 0.9 min. The “Opening of tight junctions in Caco-2 cell monolayers” value (Caco-2 cell monolayers [7]) was “no opening of tight junctions was observed”.

With `CC[C@H](C)[C@H](N)C(=O)O` [L-isoleucine] the “Effect on the intestinal absorption of insulin (in words)” value (“Effect … (in words)” for short) [8] was “no stimulatory effect on insulin absorption”.

In the case of `N[C@@H](Cc1ccccc1)C(=O)O` [L-phenylalanine], the “Effect … (in words)” value [8] is reported as “no stimulatory effect on insulin absorption”.

With `O=C(O)[C@@H]1CCCN1` [L-proline] the “Effect … (in words)” value [8] was “no stimulatory effect on insulin absorption”.

For `NCCc1c[nH]c2ccc(O)cc12` [Serotonin, serotonin], the “Effect … (in words)” value [8] was “could enhance the intestinal absorption of insulin”, the “Change in TEER of Caco-2 cell monolayers” value (Caco-2 cell monolayers [1]; apical, insulin 15 μM with additive 2.4 or 16 mM, HBSS pH 7.4, 2 h) was “increased the TEER” and the “Permeation of insulin through Caco-2 monolayer” value (Caco-2 cell monolayers [9]) was “no stimulatory effect on the permeation of insulin”.

For GLP-1, the “AUC, −L-Tryptophan” value ([5]; rat, in vivo, 1.25 mg/kg) was 1.35 ± 0.27 ng·h/mL.

With RQIKIWFQNRRMKWKK [L-penetratin] the “Onset of action / of insulin absorption after co-administration” value ([8]; insulin 50 IU/kg co-administered with L-tryptophan 8-32 mM, L-penetratin 0.5 mM or D-tryptophan 16 and 32 mM, time after administration) was 15 min.
